Measurements reported in PMC6114082, “Synthesis of aminophenylhydroxamate and aminobenzylhydroxamate derivatives and in vitro screening for antiparasitic and histone deacetylase inhibitory activity” (International Journal for Parasitology: Drugs and Drug …, 2018).
Read-outs that look alike come from different tables or passages of the source.

Assays:
T. gondi RH-YFP [1] = test system: T. gondi RH-YFP; set-up: method as in Butler et al., 2013; settings: ref Butler et al., 2013; read-out: anti-Toxoplasma IC50, literature; cited from earlier work
[2] = test system: L. tropica MHOM/BR/73/5-ASKM; experiment: Antileishmanial activity, L. tropica promastigotes; format: cell-based, Leishmania tropica
Method: (§1) The antitrypanosomatid activity of the compounds was ascertained as follows. Leishmania parasites were cultured at 26 °C in SDM-79 medium supplemented with 10% fetal calf serum (FCS), and the antileishmanial activity was determined according to a previously published protocol for LUC-expressing and wild-type Leishmania ([Sereno et al., 2001], [Abbassi et al., 2008]). Trypanosoma brucei gambiense were grown at 26 °C in Cunningham's medium supplemented with 10% FCS, 2 mM GlutaMAX-1 (Gibco, USA), 100 U/ml penicillin, 100 μg/ml streptomycin and […] bovine hemin. The epimastigote form of Trypanosoma cruzi (strain Y cl7 scl2, lineage Tc2) (kindly provided by Philippe Truc and Christian Barnabé, UMR 177 IRD-CIRAD InterTryp, Montpellier, France) were grown at 26 °C in liver infusion tryptose (LIT) medium, supplemented with 10% FCS, 2 mM GlutaMAX™-I, 100 U/ml penicillin, 100 μg/ml streptomycin and bovine hemin (20 mg/l) (Gibco). The antitrypanosomatids activity was determined using a protocol that was initialy set up for wild-type Leishmania ([Abbassi et al., 2008]). To assess the drug activity on Toxoplasma gondii, confluent human foreskin fibroblast (HFF) monolayers were infected with YFP-type I Rh kindly provided by B. Striepen, see ([Striepen et al., 1998]) or Tomato-type II Pru kindly provided by N. Blanchard (Toulouse), expressing parasites at 5 × 10^4 per well, which were then centrifuged for 30 s at 1300 rpm and incubated for 30 min in a water bath at 37 °C to allow invasion. The wells were then washed three times with PBS to eliminate extracellular parasites, and the drugs were added at various concentrations ranging from 1 to 50 μM. After incubation for 24 h at 37 °C in a humidified atmosphere containing 5% CO2, the cells were fixed in 2.5% methanol-free formaldehyde (Tebu-bio)/PBS for 30 min at room temperature. Nuclei were stained with Hoechst 33258 (2 μg/ml, Molecular Probes) for 20 min and then washed three times with water for 10 min each time. The number of infected cells, i.e., cells harboring a parasitophorous vacuole, and the number of parasites per vacuole were determined using an Olympus ScanR microscope ( × 20 objective) and ScanR software. The parasitic index in % compared to the control was calculated as follows: (PI=((number of parasite/100 cells in treated wells) x (% of infected macrophage in treated well)/(number of parasite/100 cells in untreated wells) x (% of infected macrophage in untreated wells))*100).

[3] = test system: L. braziliensis MHOM/BR/75/M209; experiment: Antileishmanial activity, L. braziliensis promastigotes (luciferase expressing strain); format: cell-based, Leishmania braziliensis
Method: as §1

[4] = test system: L. infantum MHOM/MA/67/ITMAP-264; experiment: Antileishmanial activity, L. infantum promastigotes (luciferase expressing strain); format: cell-based, Leishmania infantum; settings: for IS^b selectivity index for L. infantum: IC50 THP-1 / IC50 Leishmania infantum (footnote); for IC50: promastigotes, luciferase expressing strain
Method: as §1

[5] = test system: T. brucei MHOM/CI/81/DAL967; experiment: Antitrypanosomal activity, T. brucei; format: cell-based, Trypanosoma brucei gambiense
Method: as §1

T. gondi RH-YFP [6] = experiment: Anti-Toxoplasma activity in infected HFF monolayers, type I RH-YFP (parasitic index); format: cell-based, Toxoplasma gondii; settings: for IS^a selectivity index for T. gondi: IC50 HFF / IC50 T. gondi RH-YFP; for IC50: 24 h, type I strain, in HFF, read-out: T. gondi RH-YFP IC50
[7] = Cytotoxicity, MTT assay, HFF; format: cell-based, human; settings: human, HFF cells
Method: (§2) The human monocytic cell line THP-1 was cultivated in RPMI medium supplemented with 10% FCS, 2 mM GlutaMAX, 100 U/ml penicillin, and 100 μg/ml streptomycin. HFF cells were cultivated in Dulbecco's modified Eagle's medium (DMEM) with Earle's salts containing 10% FCS, 10 mM HEPES, 1 mM sodium pyruvate, 2 mM GlutaMAX, 100 U/ml penicillin, and 100 μg/ml streptomycin. The THP-1 and HFF cells were maintained in a 5% CO2 incubator at 37 °C. Cytotoxicity was evaluated via the MTT assay, and the IC50 values were calculated using Prism software (Prism 4 for Mac OS X, version 5.0b, December, 2008).

[8] = test system: HeLa nuclear extract (HDAC 1, 2, 6, and 8 predominant); experiment: Fluorometric HDAC assay, HeLa nuclear extract; format: biochemical; settings: HeLa nuclear extract; read-out: HDACi HeLa IC50
Method: The HDACi effect against HeLa nuclear extracts and recombinant proteins were measured using a fluorometric HDAC assay kit (Active Motif, Belgium) according to the manufacturer's instructions. […] A negative control containing trichostatin A at a final concentration of 2 μM was analyzed for each independent experiment.

Leishmania = experiment: Antileishmanial activity, Leishmania species summarised in text; format: cell-based, Leishmania spp.; settings: abstract sentence also covers antitrypanosomal activity, read-out: antileishmanial activity IC50, summarised over species
Method: The antitrypanosomatid activity of the compounds was ascertained as follows. Leishmania parasites were cultured at 26 °C in SDM-79 medium supplemented with 10% fetal calf serum (FCS), and the antileishmanial activity was determined according to a previously published protocol for LUC-expressing and wild-type Leishmania ([Sereno et al., 2001], [Abbassi et al., 2008]). Trypanosoma brucei gambiense were grown at 26 °C in Cunningham's medium supplemented with 10% FCS, 2 mM GlutaMAX-1 (Gibco, USA), 100 U/ml penicillin, 100 μg/ml streptomycin and 20 mg/ml bovine hemin. […] The antitrypanosomatids activity was determined using a protocol that was initialy set up for wild-type Leishmania ([Abbassi et al., 2008]). […] The number of infected cells, i.e., cells harboring a parasitophorous vacuole, and the number of parasites per vacuole were determined using an Olympus ScanR microscope ( × 20 objective) and ScanR software. The parasitic index in % compared to the control was calculated as follows: (PI=((number of parasite/100 cells in treated wells) x (% of infected macrophage in treated well)/(number of parasite/100 cells in untreated wells) x (% of infected macrophage in untreated wells))*100).

HFF cells = experiment: Cytotoxicity, MTT assay, HFF; format: cell-based, human
Method: as §2

THP-1 cells = experiment: Cytotoxicity, MTT assay, THP-1; format: cell-based, human; settings: MTT assay
Method: as §2

[9] = Cytotoxicity, MTT assay, THP-1; format: cell-based, human; settings: human, THP-1 cells (monocytic cell line); MTT assay
Method: as §2

Row | Structure (SMILES) | IC50 (T. gondi RH-YFP [1]) [nM] | IC50 ([2]; Leishmania tropica) [µM] | IC50 ([3]; Leishmania braziliensis) [µM] | IS^b selectivity index for L. infantum [4] | IC50 ([4]; Leishmania infantum) [µM] | IC50 ([5]; Trypanosoma brucei) [µM] | IS^a selectivity index for T. gondi (T. gondi RH-YFP [6]) | IC50 [7] [µM] | IC50 [8] [nM] | IC50 (Leishmania) [µM] | IC50 [2] [µM] | IC50 [3] [µM] | IC50 [4] [µM] | IC50 [5] [µM] | IC50 (HFF cells) [µM] | IC50 (THP-1 cells) [nM] | IC50 (T. gondi RH-YFP [6]; Toxoplasma gondii) [µM] | IC50 [9] [µM] | IC50 (T. gondi RH-YFP [6]) [µM]
1 | CCc1nc(N)nc(N)c1-c1ccc(Cl)cc1 [pyrimethamine] | 400 | – | – | – | – | – | – | – | – | – | – | – | – | – | – | – | – | – | –
2 | O=C(NO)c1ccc(CNC(=O)c2cccc(F)c2)cc1 [Compound 345, 4-{[(3-fluorophenyl)formamido]methyl}-N-hydroxybenzamide] | – | 35.3 ± 12.2 | 23.5 ± 1.5 | 0.3 | 27.2 ± 2.5 | > 60 | 11.6 | 58.3 ± 1.2 | 866 ± 400 | 15 to 50 | – | – | – | – | – | – | – | – | –
3 | Cc1nc(-c2ccc(C(=O)NCc3ccc(C(=O)NO)cc3)cc2)cs1 [Compound 360] | – | – | – | – | – | – | – | – | 399 ± 137 | – | 55 ± 15 | > 60 | > 60 | > 60 | 22.6 ± 9.5 | 2200 ± 500 | – | – | –
4 | O=C(NO)c1ccc(CNS(=O)(=O)c2cccc(F)c2)cc1 [Compound 350, 4-(3-fluorobenzenesulfonamidomethyl)-N-hydroxybenzamide] | – | > 60 | > 60 | – | > 60 | > 60 | 7.5 | 300 ± 50 | – | – | – | – | – | – | – | – | < 50 | > 400 | –
5 | Cc1nc(-c2ccc(C(=O)Nc3ccc(C(=O)NO)cc3)cc2)cs1 [Compound 361] | – | – | – | – | – | – | – | – | > 1800 | – | > 60 | > 60 | > 60 | > 60 | 25 ± 4 | > 400000 | – | – | > 50
6 | COc1cccc(CC(=O)NCc2ccc(C(=O)NO)cc2)c1 [Compound 362, N-hydroxy-4-{[2-(3-methoxyphenyl)acetamido]methyl}benzamide] | – | > 60 | > 60 | <1 | > 60 | > 60 | >7.6 | > 400 | 518 ± 146 | – | – | – | – | – | – | – | > 50 | 30.5 ± 3 | –
7 | O=C(NO)c1ccc(NC(=O)c2cccc(F)c2)cc1 [Compound 349, 4-(3-fluorobenzamido)-N-hydroxybenzamide] | – | > 60 | > 60 | – | > 60 | > 60 | – | > 400 | 633 ± 41 | – | – | – | – | – | – | – | > 50 | 264 ± 8 | –
8 | O=C(NO)c1ccc(NS(=O)(=O)c2cccc(F)c2)cc1 [Compound 351, 4-(3-fluorobenzenesulfonamido)-N-hydroxybenzamide] | – | > 60 | > 60 | <1 | > 60 | > 60 | – | 116 ± 3 | 881 ± 83 | – | – | – | – | – | – | – | > 50 | 33.5 ± 15 | –
